Data on one compound can be found in US20210260108A1, “ZINC-CONTAINING, WATER-SOLUBLE POLYGLUTAMIC ACID COMPLEX COMPOSITION” (Alextand Co., Ltd, priority 2018, published 2021).

For the data set the following is noted: 1 g added to 25 mL of water at room temperature (about 25° C., 1 atmosphere).

On to `[O]=[Zn]` [zinc oxide], for which the Water solubility result is “almost insoluble”.
